Measurements taken from patent publication US8362050B2, “Compounds and methods for modulating G protein-coupled receptors” (IRM LLC, priority 2008, dated 2013).
Read-outs that look alike come from different tables or passages of the source.

Target: T1, Human GPR120 (Homo sapiens, UniProt Q5NUL3)
T1 construct: Ga16 (promiscuous G protein) fusion partner; expressed in transfected cells
T1 sequence (Q5NUL3 with tags, fused parts or gaps): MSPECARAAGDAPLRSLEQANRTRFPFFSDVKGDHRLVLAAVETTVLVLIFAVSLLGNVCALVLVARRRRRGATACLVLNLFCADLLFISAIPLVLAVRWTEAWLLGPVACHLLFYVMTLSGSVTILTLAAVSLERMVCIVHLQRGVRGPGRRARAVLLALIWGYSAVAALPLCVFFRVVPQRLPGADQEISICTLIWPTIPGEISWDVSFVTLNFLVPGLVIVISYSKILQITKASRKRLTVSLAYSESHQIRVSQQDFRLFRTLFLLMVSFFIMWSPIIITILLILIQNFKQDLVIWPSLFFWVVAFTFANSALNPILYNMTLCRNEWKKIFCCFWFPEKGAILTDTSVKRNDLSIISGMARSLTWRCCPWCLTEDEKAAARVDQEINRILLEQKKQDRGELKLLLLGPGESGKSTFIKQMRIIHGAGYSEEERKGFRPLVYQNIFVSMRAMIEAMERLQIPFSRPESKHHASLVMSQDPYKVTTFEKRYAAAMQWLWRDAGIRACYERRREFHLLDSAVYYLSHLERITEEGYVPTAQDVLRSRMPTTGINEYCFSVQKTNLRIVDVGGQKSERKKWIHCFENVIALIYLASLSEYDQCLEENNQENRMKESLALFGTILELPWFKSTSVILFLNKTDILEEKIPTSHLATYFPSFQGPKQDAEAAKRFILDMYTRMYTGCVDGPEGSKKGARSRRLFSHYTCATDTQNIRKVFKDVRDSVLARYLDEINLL
Assay: FLIPR assay: agonist-induced calcium mobilization in HEK293-GPR120-Ga16 cells
Format: cell-based
Settings: for EC50: GPR120 activation, calcium mobilization, HEK293-GPR120-Ga16 cells; for Emax: % enhancement of the test compound relative to a known compound, read-out: % Efficiency
Experimental: Human GPR120 stable cell-line was generated in HEK293 cells. GPR120 (Accession number BC101175) is fused to a promiscuous G protein, Ga16. The expression plasmid is transfected into HEK293 cells using Fugene6 following manufacturer's instruction. Stable cell-lines are generated following drug selection.
FLIPR (Fluorimetric Imaging Plate Reader, Molecular Devices) assays are performed to measure agonist-induced calcium mobilization in the GPR120-expressing cells. One day before the FLIPR assay, HEK293-GPR120-Ga16 cells are seeded into poly-D-lysine coated black-wall-clear bottom 384 well plates (Falcon) at 25,000 cells per well in 40 μl DMEM supplemented with 1% of FBS. The cells are incubated overnight at 37° C. in a humidified incubator. The medium is aspirated on the day of the FLIPR assay. The cells are incubated with 50 μl/well of the assay buffer (HBSS, 20 mM HEPES, 2.5 mM probenecid, pH7.4) containing Fluo-4 NM dye (Invitrogen cat# F36205) at 37° C. for 45 minutes, and then equilibrated at room temperature for 30 minutes. Compounds are dissolved in DMSO and diluted to desired concentrations with assay buffer. Fluorescent output is measured immediately following compound addition (12.5 μl/well) on the FLIPR machine.
An EC50 value was calculated using the change of fluorescent intensity from the reaction initiation. […] In some examples, compounds provided herein have EC50 values from 0.1 μM to 5 μM, while in other examples from 0.5 μM to 5 μM.
The EC50 value in those experiments is given as that concentration of the test compound in question that provoke a response halfway between the baseline and maximum responses. In certain examples compounds of Formula (I) have EC50 values from 0.001 μM to 5 μM. In other examples, compounds of Formula (I) have EC50 values from 0.001 μM to 4 μM. In other examples, compounds of Formula (I) have EC50 values from 0.001 μM to 3 μM. In other examples, compounds of Formula (I) have EC50 values from 0.001 μM to 2 μM. In other examples, compounds of Formula (I) have EC50 values from 0.001 μM to 1 μM. In other examples, compounds of Formula (I) have EC50 values from 0.001 μM to 0.5 μM. […] In other examples, compounds of Formula (I) have EC50 values from 0.001 μM to 0.1 μM.
The % efficiency in those experiments is given as that % enhancement of the test compound in question relative to a known compound. In certain examples compounds of Formula (I) have a % efficiency values from 50% to 150%. In other examples, compounds of Formula (I) have a % efficiency values from 55% to 150%. In other examples, compounds of Formula (I) have a % efficiency values from 60% to 150%. In other examples, compounds of Formula (I) have a % efficiency values from 65% to 150%. In other examples, compounds of Formula (I) have a % efficiency values from 70% to 150%. In other examples, compounds of Formula (I) have a % efficiency values from 75% to 150%. In other examples, compounds of Formula (I) have a % efficiency values from 80% to 150%. In other examples, compounds of Formula (I) have a % efficiency values from 85% to 150%. In other examples, compounds of Formula (I) have a % efficiency values from 90% to 150%. In other examples, compounds of Formula (I) have a % efficiency values from 95% to 150%. In other examples, compounds of Formula (I) have a % efficiency values from 100% to 150%.

| SMILES | EC50 (read-out: EC50 Range) [nM] | Emax [%] | EC50 (read-out: EC50) [nM] |
| --- | --- | --- | --- |
| CCn1c(-c2cccc(C#N)c2)cs/c1=N\c1ccc(S(=O)(=O)O)cc1 [Compound 1, (Z)-4-(4-(3-cyanophenyl)-3-ethylthiazol-2(3H)-ylideneamino)benzenesulfonic acid] | 500 to 1000 | – | – |
| CCn1c(-c2cc(C(F)(F)F)cc(C(F)(F)F)c2)cs/c1=N\c1ccc(S(=O)(=O)O)cc1 [Compound 2] | 250 to 500 | 102 | 396 |
| CCn1c(-c2ccccc2)c(C)s/c1=N\c1ccc(S(=O)(=O)O)cc1 [Compound 3, (Z)-4-(3-ethyl-5-methyl-4-phenylthiazol-2(3H)-ylideneamino)benzenesulfonic acid] | 500 to 1000 | 85.6 | 547 |
| CCn1c(-c2cccc(F)c2)cs/c1=N\c1ccc(S(=O)(=O)O)cc1 [Compound 4, (Z)-4-(3-ethyl-4-(3-fluorophenyl)thiazol-2(3H)-ylideneamino)benzenesulfonic acid] | 250 to 500 | – | – |
| CCn1c(-c2cccc(Br)c2)cs/c1=N\c1ccc(S(=O)(=O)O)cc1 [Compound 5, (Z)-4-(4-(3-bromophenyl)-3-ethylthiazol-2(3H)-ylideneamino)benzenesulfonic acid] | 100 to 250 | – | – |
| CCn1c(-c2ccccc2OC(F)(F)F)cs/c1=N\c1ccc(S(=O)(=O)O)cc1 [Compound 6, (Z)-4-(3-ethyl-4-(2-(trifluoromethoxy)phenyl)thiazol-2(3H)-ylideneamino)benzenesulfonic acid] | 500 to 1000 | 123 | 541 |
| CCn1c(-c2cc(Cl)ccc2Cl)cs/c1=N\c1ccc(S(=O)(=O)O)cc1 [Compound 7, (Z)-4-(4-(2,5-dichlorophenyl)-3-ethylthiazol-2(3H)-ylideneamino)benzenesulfonic acid] | 100 to 250 | 124 | 109 |
| CCn1c(-c2ccccc2Oc2ccccc2)cs/c1=N\c1ccc(C(=O)O)cc1 [Compound 8, (Z)-4-(3-ethyl-4-(2-phenoxyphenyl)thiazol-2(3H)-ylideneamino)benzoic acid] | 500 to 1000 | 88.1 | 780 |
| CCn1c(-c2ccccc2)cs/c1=N\c1ccc(-c2nn[nH]n2)cc1 [Compound 9, (Z)-N-(3-ethyl-4-phenylthiazol-2(3H)-ylidene)-4-(2H-tetrazol-5-yl)aniline] | 100 to 250 | 98.4 | 207 |
| CCn1c(-c2ccccc2)cs/c1=N\c1ccc(C(=O)O)c(F)c1F [Compound 10, (Z)-4-(3-ethyl-4-phenylthiazol-2(3H)-ylideneamino)-2,3-difluorobenzoic acid] | 250 to 500 | 86.2 | 485 |
| CCn1c(-c2ccccc2C(F)(F)F)cs/c1=N\c1ccc(C(=O)O)cc1 [Compound 11, (Z)-4-(3-ethyl-4-(2-(trifluoromethyl)phenyl)thiazol-2(3H)-ylideneamino)benzoic acid] | 100 to 250 | – | – |
| CCn1c(-c2ccccc2OC(F)(F)F)cs/c1=N\c1ccc(C(=O)O)cc1 [Compound 12, (Z)-4-(3-ethyl-4-(2-(trifluoromethoxy)phenyl)thiazol-2(3H)-ylideneamino)benzoic acid] | 250 to 500 | – | – |

More lines, now with the values ahead:

| EC50 (read-out: EC50 Range) [nM] | Emax [%] | EC50 (read-out: EC50) [nM] | SMILES |
| --- | --- | --- | --- |
| 500 to 1000 | – | – | CCn1c(-c2cccc(OC(F)(F)F)c2)cs/c1=N\c1ccc(C(=O)O)cc1 [Compound 13, (Z)-4-(3-ethyl-4-(3-(trifluoromethoxy)phenyl)thiazol-2(3H)-ylideneamino)benzoic acid] |
| 100 to 250 | – | – | CCn1c(-c2ccccc2)cs/c1=N\c1ccc(C(=O)O)c(F)c1 [Compound 14, (Z)-4-(3-ethyl-4-phenylthiazol-2(3H)-ylideneamino)-2-fluorobenzoic acid] |
| 100 to 250 | – | – | CCn1c(-c2ccccc2)cs/c1=N\c1ccc(C(=O)O)c(Br)c1 [Compound 15, (Z)-2-bromo-4-(3-ethyl-4-phenylthiazol-2(3H)-ylideneamino)benzoic acid] |
| 250 to 500 | 96.9 | 479 | CCCn1c(-c2ccccc2)cs/c1=N\c1ccc(C(=O)O)cc1 [Compound 16, (Z)-4-(4-phenyl-3-propylthiazol-2(3H)-ylideneamino)benzoic acid] |
| 100 to 250 | – | – | CC(C)n1c(-c2ccccc2)cs/c1=N\c1ccc(C(=O)O)cc1 [Compound 17, (Z)-4-(3-isopropyl-4-phenylthiazol-2(3H)-ylideneamino)benzoic acid] |
| 250 to 500 | – | – | CCn1c(-c2cccc(O)c2)cs/c1=N\c1ccc(C(=O)O)cc1 [Compound 18, (Z)-4-(3-ethyl-4-(3-hydroxyphenyl)thiazol-2(3H)-ylideneamino)benzoic acid] |
| 500 to 1000 | 81.1 | 628 | CCn1c(-c2cc(O)ccc2Br)cs/c1=N\c1ccc(C(=O)O)cc1 [Compound 19, (Z)-4-(4-(2-bromo-5-hydroxyphenyl)-3-ethylthiazol-2(3H)-ylideneamino)benzoic acid] |
| 100 to 250 | 77.1 | 119 | CCn1c(-c2cccc(OCCOC)c2)cs/c1=N\c1ccc(C(=O)O)cc1 [Compound 20, (Z)-4-(3-ethyl-4-(3-(2-methoxyethoxy)phenyl)thiazol-2(3H)-ylideneamino)benzoic acid] |
| 250 to 500 | 84.7 | 446 | O=C(O)c1ccc(/N=c2\scc(-c3ccccc3)n2CC2CC2)cc1 [Compound 21, (Z)-4-(3-(cyclopropylmethyl)-4-phenylthiazol-2(3H)-ylideneamino)benzoic acid] |
| 500 to 1000 | – | – | CCC(C)n1c(-c2ccccc2)cs/c1=N\c1ccc(C(=O)O)cc1 (stereo not shown) [Compound 22, (Z)-4-(3-sec-butyl-4-phenylthiazol-2(3H)-ylideneamino)benzoic acid] |
| 100 to 250 | – | – | O=C(O)c1ccc(/N=c2\scc(-c3ccccc3)n2CC(F)F)cc1 [Compound 23, (Z)-4-(3-(2,2-difluoroethyl)-4-phenylthiazol-2(3H)-ylideneamino)benzoic acid] |
| 100 to 250 | 71.2 | 184 | O=C(O)c1ccc(/N=c2\scc(-c3ccccc3)n2CC(F)(F)F)cc1 [Compound 24, (Z)-4-(4-phenyl-3-(2,2,2-trifluoroethyl)thiazol-2(3H)-ylideneamino)benzoic acid] |
| 250 to 500 | – | – | CCn1c(-c2ccccc2)cs/c1=N\c1c(F)c(F)c(C(=O)O)c(F)c1F [Compound 25, (Z)-4-(3-ethyl-4-phenylthiazol-2(3H)-ylideneamino)-2,3,5,6-tetrafluorobenzoic acid] |
